In US8940310B2, “Methods of treatment using TLR7 and/or TLR9 inhibitors” (Dynavax Technologies Corporation, priority 2010, dated 2015):
[I] = hypoxanthine (inosine)

Tests used:
TLR9 = biological target: T1, TLR9 (Homo sapiens, UniProt Q9NR96); assay: Human PDC stimulated with HSV-1 (TLR9 ligand), IFN-α; assay type: cell-based; details: TLR9L HSV
T1 construct: the primary human PDCs were thus stimulated with HSV-1 (4 MOI) or influenza (2 MOI); endogenous in cells; host or cells: primary human plasmacytoid dendritic cells from blood donors
T1 sequence (Q9NR96 26-1032): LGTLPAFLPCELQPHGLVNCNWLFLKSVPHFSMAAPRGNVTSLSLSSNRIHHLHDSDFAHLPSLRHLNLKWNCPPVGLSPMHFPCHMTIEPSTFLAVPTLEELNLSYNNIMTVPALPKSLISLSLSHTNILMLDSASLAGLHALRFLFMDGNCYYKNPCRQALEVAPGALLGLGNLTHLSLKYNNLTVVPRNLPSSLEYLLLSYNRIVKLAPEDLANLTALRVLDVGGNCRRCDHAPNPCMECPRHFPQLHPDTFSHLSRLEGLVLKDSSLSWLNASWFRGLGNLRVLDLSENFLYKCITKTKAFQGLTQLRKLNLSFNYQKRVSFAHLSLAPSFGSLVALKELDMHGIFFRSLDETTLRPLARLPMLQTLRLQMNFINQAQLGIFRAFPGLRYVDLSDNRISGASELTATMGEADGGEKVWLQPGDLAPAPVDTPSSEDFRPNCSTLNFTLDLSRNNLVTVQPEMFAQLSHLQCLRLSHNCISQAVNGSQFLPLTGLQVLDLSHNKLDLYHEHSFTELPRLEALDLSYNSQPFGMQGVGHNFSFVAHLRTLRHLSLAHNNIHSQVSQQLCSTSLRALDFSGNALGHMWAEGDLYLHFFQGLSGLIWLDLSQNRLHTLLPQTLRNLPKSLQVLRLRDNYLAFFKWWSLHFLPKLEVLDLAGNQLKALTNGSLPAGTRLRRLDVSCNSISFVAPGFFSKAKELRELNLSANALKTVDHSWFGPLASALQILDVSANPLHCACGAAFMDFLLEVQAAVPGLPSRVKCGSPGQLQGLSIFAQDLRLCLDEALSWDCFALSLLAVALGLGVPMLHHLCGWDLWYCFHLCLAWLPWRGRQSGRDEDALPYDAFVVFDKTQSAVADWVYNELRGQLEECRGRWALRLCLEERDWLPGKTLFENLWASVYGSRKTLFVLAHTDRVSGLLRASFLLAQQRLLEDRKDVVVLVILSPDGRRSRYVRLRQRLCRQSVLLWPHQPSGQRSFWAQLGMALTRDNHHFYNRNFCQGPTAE
Source text: Human PDCs infected with herpes simplex virus type 1 (HSV-1 KOS strain) respond by producing IFN-α and this response is dependent on TLR-9 signaling. Human PDCs infected with influenza virus (FLU H1N1 strain, A/PR/8/34 from a patient in Puerto Rico 1934; See ATCC catalog VR-95) also respond by producing IFN-α, however, this response is dependent on TLR-7 signaling and independent of TLR-9. The effect of IRPs on innate immune response cytokine production by infected cells was examined. In a dose-dependent manner, the primary human PDCs were thus stimulated with HSV-1 (4 MOI) or influenza (2 MOI), either alone or in the presence of the tested IRPs. At 24 hours, supernatants were collected and cytokine levels, IFN-alpha, were measured by immunoassay.
Human PDCs from 16-18 donors were purified and infected with influenza virus (strain PR/8) or HSV-1. HSV was used at 4 MOI, while the influenza virus was used at 2 MOI. The amount of IFN-α produced by the cells was measured and compared to the amount of virus used for infection.
To further investigate the effectiveness of IRPs on TLR7 and TLR9 activation, various IRPs or control samples were assayed for immunoregulatory activity on human PDCs as described in Example 8.

TLR7 and TLR9 = assay: Type I IFN-regulated genes in spleens of lupus-prone mice (Taqman); assay type: in vivo, mouse; details: (NZBxNZW)F1 and TLR7.Tg.6, IRS 100 μg s.c. every 3 days for 10 days
Method: (A) (NZBxNZW)F1 mice were treated as described in FIG. 16 but when mice received IRS, different doses of GC were used (in mg per mouse here) (B) (NZBxNZW)F1 and (C) TLR7.Tg.6 mice were left untreated or treated with IRS (100 μg/mice s.c) every 3 days for 10 days and spleens were harvested 18 hr after the last IRS injection. RNA was prepared from the spleens of the animals and the levels of type I IFN-regulated genes were measured by quantitative analysis (Taqman). Averages±standard error of the mean for n=6-10 mice per group.
PCR reactions were performed as described previously (Barrat et al., 2005). In brief, RNA was extracted from collagenase D-treated splenocyte suspensions with Qiagen RNA and cDNA was generated with SuperScript First-Strand Synthesis System (Invitrogen). ECT was threshold cycle (CT) values for each gene were normalized to the housekeeping genes ubiquitin or β-actin using the formula Eq. 1.8(HSKGENE) (100,000), where HSK is the mean CT of triplicate housekeeping gene runs, GENE is the mean CT of duplicate runs of the gene of interest, and 100,000 is arbitrarily chosen as a factor to bring all values above 0.

Substance	IC50 (TLR9) [nM]	IC90 (TLR9) [nM]	expression of IFN-regulated genes (TLR7 and TLR9)
5′-TGC TCC TGG AGI GGT TGT-3′ (DNA TGCTCCTGGAGNGGTTGT; DNA, [I] at 12, backbone and methylation of C not given here) [SEQ ID NO:73]	25	99	–
5′-TGCTCCTGGAGGGGTTGT-3′ (DNA, backbone not given here) [SEQ ID NO:42]	–	–	reduced the expression of IFN-regulated genes but not TNF-α
